The source of these data is patent US10106625B2, “Pharmaceutical compositions with enhanced performance and improved processability” (HERCULES INCORPORATED, priority 2013, dated 2018).

Series [1] can be described thus: Kinetic solubility of spray dried dispersion with Ezetimibe in FaSSIF. It counts as physicochemical. As to the method: Hg reduced pressure for 24 hours.
For series [2] the following is noted: 120 min.
Procedure: Dissolution was performed using a pDISS Profiler™ (available from Pion Inc., MA, USA). Each spray-dried powder was weighed so that the volume adjusted equivalent of the typical daily dose of the drug was added to each vial and compensation was made for the drug load of the samples. For example, the target API was 9.5 mg for Felpdipine in 20 ml of FaSSIF. The spray dried sample containing 9.5 mg API of Felpdipine was weighed. For Ezetimibe, the spray dried sample containing 10 mg API was weighed. The weighed spray dried samples were added to 20 ml of FaSSIF in vials and then heated to 37° C. The vials were maintained at a constant stirring speed of 300 RPM. Dissolution measurements were taken by in situ fiber optic probes at various time points and these measurements were analyzed at the appropriate wavelength for dissolved API concentration. Based on the in situ measurement data, various solubility parameters were calculated.
The conditions of series [3]: cited from earlier work.

Structures are written as SMILES. Read-outs that look alike come from different tables or passages of the source.

The molecule `O=C1[C@H](CC[C@H](O)c2ccc(F)cc2)[C@@H](c2ccc(O)cc2)N1c1ccc(F)cc1` [Ezetimibe API, Ezetimibe] had a C120 in series [1] (Ezetimibe SDD, 60% drug load, API concentration at 120 minutes) of 14 µg/mL. For the same molecule, in series [1] (Ezetimibe SDD, 60% drug load, FaSSIF 37° C., API concentration over first 120 minutes), the AUC120 is recorded as 1,626 μg * min/mL. Moreover, in series [1] (Ezetimibe, ratio of AUC120 of polymer/drug dispersion versus API alone), the “AUC(Rel)” value was determined as 1.0.
As to `CCOC(=O)C1=C(C)NC(C)=C(C(=O)OC)C1c1cccc(Cl)c1Cl` (centres unmarked) [Felodipine API, Felodipine], the C120 in series [2] came to 28 µg/mL.
For `CCOC(=O)N1c2ccc(C(F)(F)F)cc2[C@@H](N(Cc2cc(C(F)(F)F)cc(C(F)(F)F)c2)C(=O)OC)C[C@H]1CC` [torcetrapib], the aqueous solubility entry in series [3] is reported as “less than 0.04 μg/ml”.
